# Values of other authors, collected in patent publication US20220202698A1, “EXTENDED RELEASE PHARMACEUTICAL COMPOSITIONS OF RIOCIGUAT” (Jubilant Pharma Holdings Inc., priority 2020, published 2022).
# Assays:
# [1] = human, in vivo
# [2] = BCS classification
compound,measurement,setting,value
"COC(=O)N(C)c1c(N)nc(-c2nn(Cc3ccccc3F)c3ncccc23)nc1N [Riociguat, methyl 4,6-diamino-2-[1-(2-fluorobenzyl)-1H-pyrazolo[3,4-b]pyridin-3-yl]-5-pyrimidinyl(methyl)carbamate]",Elimination half-life,[1],about 12 hours
same,Solubility,[2],low solubility
